# Values of other authors, collected in patent US10300042B2, “Apremilast for the treatment of a liver disease or a liver function abnormality” (Celgene Corporation, priority 2014, dated 2019).
# Tested on: alanine aminotransferase and/or aspartate aminotransferase
# Settings: animal models and human studies; cited from earlier work
structure (smiles),measurement,value
CC(=O)CCCCn1c(=O)c2c(ncn2C)n(C)c1=O [Pentoxifylline],"Liver Function Tests abnormalities (ALT, AST levels)",decreasing levels of alanine aminotransferase and/or aspartate aminotransferase
